Peptide text beside a SMILES is read from it. * marks the point of attachment. Cbz = O=C(OCc1ccccc1)*
Columns and labels:
[1] = test system: proteasome; experiment: Proteasome inhibition after NQO1 siRNA knockdown in T24 cells, Western blot; format: cell-based, human; settings: NQO1 siRNA 24 h then MG-132 6 h, FIG. 6C
Procedure: Cell culture and Western blots. Cells were cultured in appropriate media (DMEM+1% p/s+10% FBS) and subcultured as necessary. Tissue homogenates were prepared by removing whole bladders from freshly-sacrificed mice killed with isoflurane inhalation and lysing tissue as a 10% homogenate in ice-cold RIPA buffer (50 mM Tris-Cl, pH 7.4, 150 mM NaCl, 1% NP-40, 1 mM EDTA, 0.5% Na Deoxycholate, and 1% Triton X100 with 1 mM PMSF and 1× Protease Inhibitor Cocktail (Complete, Roche)) using glass and Teflon pestle system, and further clarified via centrifugation at 14000 rpm at 4 degrees for 10 minutes. Homogenates were stored at −80° C. until use. Western blotting was performed essentially according to Towbin H, T. Staehelin, J. Gordon, “Electrophoretic transfer of proteins from polyacrylamide gels to nitrocellulose sheets: procedure and some applications,” Proc Natl Acad Sci USA, v76, pp 4350-4354, 1979.
(§1) FIG. 6A through FIG. 6E are Western blot images that illustrate example NQO1 regulation of energy metabolic regulator factor PGC1α in a bladder of a mouse model for PBS compared to wild-type mouse, according to an embodiment. FIG. 6A is a set of Western blot images that illustrate example relative occurrence of proteins in bladders from wild type mice (left) and NQO1−/− mice (right). Bladders from wild type and NQO1−/− mice were immunoblotted and probed with antibodies as indicated: for NQO1 in blot image 601; for AMPK in blot image 603; for CREB in blot image 605; and, for control GAPDH in blot image 607. FIG. 6B is a set of Western blot images that illustrate example relative occurrence of proteins in T24 human bladder carcinoma cells transfected with control (column C, 100 nM control siRNA) or NQO1-specific siRNA (columns 10, 50 and 150 nM NQO1 siRNA) for 24 h and then immunoblotted with indicated antibodies: for NQO1 in blot image 611; for CREB in blot image 613; for AMPK in blot image 615; for PGC1α in blot image 617; and, for control GAPDH in blot image 619. […]

[2] = test system: NQO1 and 20S proteasome interaction with CREB and AMPK in T24; experiment: Immunoprecipitation of CREB and AMPK from T24 cells incubated with B[α]P; format: cell-based, human; settings: B[α]P 0, 10 and 100 nM, 16 h
Procedure: Immunoprecipitation. Human bladder carcinoma T24 cell line was cultured in DMEM+10% FBS+1% p/s at 37 degrees in 5% carbon dioxide before IP studies. Cells were incubated with chemicals as necessary and washed 3× in PBS on ice. Cells were scraped into microfuge tubes using RIPA buffer and protein A/G beads (SANTA CRUZ BIOTECH™ of Santa Cruz, Calif.) were equilibrated with 1 mg aliquots for 1 h. After equilibration, beads were removed and lysates were incubated o/n with 1:100 of relevant antibodies, and next day incubated with 30 microliters A/G beads for 1 h before 3× RIPA buffer wash and boiling 5 mins.
as §1, with “619. FIG. 6C is a set of Western blot images that illustrate example relative occurrence of proteins in T24 human bladder carcinoma cells transfected with control (column C, 100 nM control siRNA) or NQO1-specific siRNA (columns 50 and 100 nM NQO1 siRNA) for 24 h and then incubated for 6 h with vehicle (signified by -) or proteasome inhibitor MG-132 (signified by +) before lysis and separation via SDS-PAGE. The samples were probed with the antibodies indicated: for NQO1 in blot image 621; for CREB in blot image 623; for AMPK in blot image 625; for PGC1α in blot image 627; and, for control GAPDH in blot image 629. FIG. 6D and FIG. 6E are sets of Western blot images that illustrate example relative occurrence of proteins in T24 cells that were incubated for 16 h with B[α]P at concentrations of 0, 10 and 100 nanoMoles (nM, 1 nM=10^−9 Moles) and then immunoprecipitated with antibodies against CREB (in FIG. 6D) and AMPK (in FIG. 6E) overnight. IgG was used as immunoprecipitation control.” for “619.”

[3] = test system: wild-type and NQO1−/− bladder cells; experiment: Ex vivo bladder cell culture, B[α]P-induced ROS (DCF fluorescence); format: cell-based, mouse
Procedure: Ex-vivo cell culture and chemical treatment. Whole bladders from age-matched female wild-type and NQO1−/− 24 weeks-old mice were excised from euthanized mice and minced in a 10 cm dish with a razorblade. Pieces were suspended in microfuge tubes containing 500 microliters of 1% […] reconstituted in PBS and incubated at 37 degrees with 700 rpm shaking for 45 minutes to dissociate cells from tissue. Tubes were centrifuged at 500 g for 3 minutes to pellet cells, and resuspended in full cell culture media. Cells were plated in 8-well tissue culture chamber slides (e.g., from LAB-TEK™) with cells from one bladder equally divided into one 8-well slide, into 1 mL media total volume. After 2-4 days of growth with daily media changes, cells were treated with various concentrations of benzopyrene dissolved in acetone, or acetone control in fresh media for 18 h, followed by removal and addition of DCF (SIGMA ALDRICH™) at 5 micromolar for 1 h. DCF was then removed and full media added for 1 h, followed by immediate mounting of cover slips in VectaShield (VECTOR LABS™ of Burlingame, Calif.) and viewing under FITC-viewing filter to determine fluorescence of ROS-modified DCF within cells. […]

Compound: CC(C)C[C@@H](C=O)NC(=O)[C@H](CC(C)C)NC(=O)[C@H](CC(C)C)NC(=O)OCc1ccccc1 [MG-132] (Cbz-Leu-Leu-Leu-aldehyde)
- rescue of AMPK protein from down regulation [1]: rescued from down regulation
- rescue of CREB protein from down regulation [1]: rescued from down regulation
- rescue of PGC1α protein from down regulation [1]: not PGC1α proteins were rescued from down regulation

Compound: benzo[α]pyrene [B[α]P]
- 20S proteasome interaction with CREB ([2]; FIG. 6D): more or less did not change
- NQO1 interaction with CREB ([2]; FIG. 6D): appears to be increased during stress conditions
- 20S proteasome interaction with AMPK ([2]; FIG. 6E): more or less did not change
- NQO1 interaction with AMPK ([2]; FIG. 6E): appears to be increased during stress conditions
- stress signaling (count of ROS-positive, DCF-positive cells normalized to wild-type) ([3]; 100 μM B[α]P, 18 h, cells from 24 week-old female mice, NQO1−/− vs wild-type, P<0.05, FIG. 3C): significantly stronger stress than does wild-type
- susceptibility to B[α]P-induced generation of reactive oxygen species (ROS) ([3]; NQO1−/− bladder cells relative to wild-type bladder cells, ex vivo): markedly increased susceptibility

— patent publication US20120208767A1, “Method to Detect or Treat Painful Bladder Syndrome based on Relation to Quinone Oxidoreductase 1” (University of Maryland, Baltimore, priority 2011, published 2012)
